Experimental data: patent US20220106272A1 (Terran Biosciences, Inc., priority 2018, published 2022)

Assay: Metabolic stability in human liver microsomes
Assay type: in vitro ADME
Settings: 0.25 μM test compound; for half-life at 0.25 μM: 2 mM NADPH, 37° C.; for CLint scaled at 0.25 μM: human liver microsomes
Protocol: Microsomal Assay: Human liver microsomes (20 mg/mL) were obtained from Xenotech, LLC (Lenexa, Kans.). β-nicotinamide adenine dinucleotide phosphate, reduced form (NADPH), magnesium chloride (MgCl2), and dimethyl sulfoxide (DMSO) were purchased from Sigma-Aldrich.
Determination of Metabolic Stability: 7.5 mM stock solutions of test compounds of structural formula (I) (e.g., of an embodiment or aspect of embodiment thereof described herein) or structural formula (II), or pharmaceutically acceptable salt thereof, were prepared in DMSO. The 7.5 mM stock solutions were diluted to 12.5-50 μM in acetonitrile (ACN). The 20 mg/mL human liver microsomes were diluted to 0.625 mg/mL in 0.1 M potassium phosphate buffer, pH 7.4, containing 3 mM MgCl2. The diluted microsomes were added to wells of a 96-well deep-well polypropylene plate in triplicate. A 10 μL aliquot of the 12.5-50 μM test compound was added to the microsomes and the mixture was pre-warmed for 10 minutes. Reactions were initiated by addition of pre-warmed NADPH solution. The final reaction volume was 0.5 mL and contained […] human liver microsomes, 0.25 μM test compound, and 2 mM NADPH in 0.1 M potassium phosphate buffer, pH 7.4, and 3 mM MgCl2. The reaction mixtures were incubated at 37° C., and 50 μL aliquots were removed at 0, 5, 10, 20, and 30 minutes and added to shallow-well 96-well plates which contain 50 μL of ice-cold ACN (acetonitrile) with internal standard to stop the reactions. The plates were stored at 4° C. for 20 minutes after which 100 μL of water was added to the wells of the plate before centrifugation to pellet precipitated proteins. Supernatants were transferred to another 96-well plate and analyzed for amounts of parent remaining by LC-MS/MS using an Applied Bio-systems API 4000 mass spectrometer. The same procedure was followed for the non-deuterated counterpart of the compound of Formula I and the positive control, 7-ethoxycoumarin (1 μM). Testing was done in triplicate.
Data analysis: The in vitro t1/2s for test compounds were calculated from the slopes of the linear regression of % parent remaining (ln) vs incubation time relationship.
k=−[slope of linear regression of % parent remaining (ln) vs incubation time]
The apparent intrinsic clearance was calculated using the following equation:
CLint(mL/min/kg)=(0.693/in vitro t1/2)(Incubation Volume/mg of microsomes)(45 mg microsomes/gram of liver)(20 gm of liver/kg b.w.)
Data analysis was performed using Microsoft Excel Software.

[1] = pH 7.4, EXP# 2506, 4.0 mg/mL human liver microsomes
[2] = pH 7.4, EXP# 2506, apparent intrinsic clearance
[3] = pH 7.4, EXP# 2503, 4.0 mg/mL human liver microsomes
[4] = pH 7.4, EXP#2503, apparent intrinsic clearance

Structure (SMILES)	half-life at 0.25 μM [1] [h]	CLint scaled at 0.25 μM [2] [mL/min/kg]	half-life at 0.25 μM [3] [h]	CLint scaled at 0.25 μM [4] [mL/min/kg]
[2H]C([2H])([2H])Oc1cccc([C@H](O)C2CCN(C([2H])([2H])C([2H])([2H])c3ccc(F)cc3)CC2)c1OC([2H])([2H])[2H] [Compound 159, (R)-(2,3-bis(methoxy-d3)phenyl)(1-(2-(4-fluorophenyl)ethyl-1,1,2,2-d4)piperidin-4-yl)methanol]	1.42	1.9		
[2H]C([2H])([2H])Oc1cccc([C@H](O)C2([2H])C([2H])([2H])C([2H])([2H])N(CCc3ccc(F)cc3)C([2H])([2H])C2([2H])[2H])c1OC([2H])([2H])[2H] [Compound 347, (R)-(2,3-bis(methoxy-d3)phenyl)(1-(4-fluorophenethyl)piperidin-4-yl-2,2,3,3,4,5,5,6,6-d9)methanol]			0.815	3.2
[2H]C([2H])([2H])Oc1cccc([C@H](O)C2CCN(C([2H])([2H])Cc3ccc(F)cc3)CC2)c1OC([2H])([2H])[2H] [Compound 151, (R)-(2,3-bis(methoxy-d3)phenyl)(1-(2-(4-fluorophenyl)ethyl-1,1-d2)piperidin-4-yl)methanol]	1.17	2.3		
[2H]C([2H])([2H])Oc1cccc([C@H](O)C2([2H])C([2H])([2H])C([2H])([2H])N(C([2H])([2H])C([2H])([2H])c3ccc(F)cc3)C([2H])([2H])C2([2H])[2H])c1OC([2H])([2H])[2H] [Compound 383, (R)-(2,3-bis(methoxy-d3)phenyl)(1-(2-(4-fluorophenyl)ethyl-1,1,2,2-d4)piperidin-4-yl-2,2,3,3,4,5,5,6,6-d9)methanol]			1.23	2.3
[2H]C([2H])([2H])Oc1cccc([C@H](O)C2CCN(CCc3ccc(F)cc3)CC2)c1OC([2H])([2H])[2H] [Compound 147, (R)-(2,3-bis(methoxy-d3)phenyl)(1-(4-fluorophenethyl)piperidin-4-yl)methanol]	1.12	2.3		
[2H]C([2H])([2H])Oc1cccc([C@H](O)C2([2H])C([2H])([2H])C([2H])([2H])N(C([2H])([2H])Cc3ccc(F)cc3)C([2H])([2H])C2([2H])[2H])c1OC([2H])([2H])[2H] [Compound 359, (R)-(2,3-bis(methoxy-d3)phenyl)(1-(2-(4-fluorophenyl)ethyl-1,1-d2)piperidin-4-yl-2,2,3,3,4,5,5,6,6-d9)methanol]			1.1	2.4
[2H]C([2H])([2H])Oc1cccc([C@]([2H])(O)C2CCN(CCc3ccc(F)cc3)CC2)c1OC([2H])([2H])[2H] [Compound 148, (R)-(2,3-bis(methoxy-d3)phenyl)(1-(4-fluorophenethyl)piperidin-4-yl)methan-d-ol]	1.19	2.2		
[2H]C([2H])([2H])Oc1cccc([C@H](O)C2CCN(CCc3ccc(F)cc3)CC2)c1OC [Compound 115, (R)-(1-(4-fluorophenethyl)piperidin-4-yl)(2-methoxy-3-(methoxy-d3)phenyl)methanol]	1.16	2.3		
COc1cccc([C@H](O)C2CCN(CCc3ccc(F)cc3)CC2)c1OC [volinanserin, (R)-(+)-α-(2,3-dimethoxyphenyl)-1-[2-(4-fluorophenyl)ethyl]-4-piperidinemethanol, reference compound]	0.808	3.2	0.745	3.5
[2H]C1([2H])N(CCc2ccc(F)cc2)C([2H])([2H])C([2H])([2H])C([2H])([C@@H](O)c2cccc(OC)c2OC)C1([2H])[2H] [Compound 203, (R)-(2,3-dimethoxyphenyl)(1-(4-fluorophenethyl)piperidin-4-yl-2,2,3,3,4,5,5,6,6-d9)methanol]			0.794	3.4
[2H]C([2H])([2H])Oc1c(OC)cccc1[C@H](O)C1CCN(CCc2ccc(F)cc2)CC1 [Compound 131, (R)-(1-(4-fluorophenethyl)piperidin-4-yl)(3-methoxy-2-(methoxy-d3)phenyl)methanol]	1.19	2.4		
[2H]C([2H])(Cc1ccc(F)cc1)N1C([2H])([2H])C([2H])([2H])C([2H])([C@@H](O)c2cccc(OC)c2OC)C([2H])([2H])C1([2H])[2H] [Compound 215, (R)-(2,3-dimethoxyphenyl)(1-(2-(4-fluorophenyl)ethyl-1,1-d2)piperidin-4-yl-2,2,3,3,4,5,5,6,6-d9)methanol]			0.777	3.4
